Experimental data taken from patent publication US6696545B1, “Cytomodulating lipophilic peptides for modulating immune system activity and inhibiting inflammation” (Sangstat Medical Corporation, priority 1997, dated 2004).
Ends that are not written are not given here.

Assays:
[1] = system: C57B1/6 heart allograft in CBA mice; test: Vascularized fully mismatched heterotopic heart allograft model; format: in vivo, mouse; settings: intraperitoneal
Protocol: The immunosuppressive activity of the bc peptides was evaluated in a vascularized fully mismatched mouse heart allograft model. Specifically, abdominal heterotopic heart transplantation was performed as described previously by Ono and Lindsey, J. Thoracic Cardiovasc. Surg. 7:225 (1969)). CBA mice recipients of C57B1/6 hearts were treated daily with various doses of peptide following organ transplantation. Peptides were dissolved in DMSO and diluted in PBS (final DMSO concentration was 10%) before intraperitoneal administration. Animals were treated starting at the day of transplantation until day five or nine. Graft survival was monitored daily by direct palpation, and rejection was defined as termination of palpable cardiac contractility. The statistical significance of prolongation of heart allograft survival was calculated using the Mann-Whitney test.

recombinant hsc70 = molecular target: T1, recombinant hsc70 (Bos taurus, UniProt P19120); test: hsc70 binding ELISA / competition with biotinylated-2702.75-84
T1 construct: purchased Stressgen, Victoria, Canada
T1 sequence (P19120 2-650 limits assumed): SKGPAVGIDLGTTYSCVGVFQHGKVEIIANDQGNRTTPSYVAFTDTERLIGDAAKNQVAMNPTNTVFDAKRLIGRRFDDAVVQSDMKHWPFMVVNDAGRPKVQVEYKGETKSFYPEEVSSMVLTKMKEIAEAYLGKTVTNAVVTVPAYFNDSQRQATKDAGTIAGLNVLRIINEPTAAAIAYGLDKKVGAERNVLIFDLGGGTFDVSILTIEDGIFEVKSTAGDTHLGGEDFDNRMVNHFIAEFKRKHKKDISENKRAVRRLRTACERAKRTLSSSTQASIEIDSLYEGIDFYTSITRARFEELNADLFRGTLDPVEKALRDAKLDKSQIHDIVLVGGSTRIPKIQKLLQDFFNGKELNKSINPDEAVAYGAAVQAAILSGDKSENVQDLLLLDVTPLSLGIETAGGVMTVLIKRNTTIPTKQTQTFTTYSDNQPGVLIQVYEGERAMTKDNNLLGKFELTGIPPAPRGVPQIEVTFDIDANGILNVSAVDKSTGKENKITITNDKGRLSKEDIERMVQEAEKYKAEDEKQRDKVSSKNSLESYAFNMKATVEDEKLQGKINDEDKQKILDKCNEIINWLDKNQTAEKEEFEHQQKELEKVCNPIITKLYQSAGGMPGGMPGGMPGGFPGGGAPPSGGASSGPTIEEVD
Protocol: To determine if bc peptides are capable of binding to hsc70, protein binding assays were performed. Specifically, peptide 2702.75-84 was synthesized in a biotinylated form with biotin attached to the N-terminus via a six carbon spacer. ELISA plates (Nunc Maxisorb, Nunc, USA) were coated with 100 ng/ml of recombinant hsc70 (Stressgen, Victoria, Canada) in 100 mM Na-citrate buffer, pH 4.0 overnight at 4° C. Subsequently, remaining binding sites were blocked by incubating the plates with PBS/0.1% Tween 20 (PBS/Tween; Sigma) for 2 hours at room temperature. Unbound material was removed by washing the plates three times with PBS/Tween. Following the addition of biotinylated 2702.75-84 in PBS/Tween/1% DMSO, the plates were incubated for 2 hours at room temperature, washed three times, incubated with 0.1 μg/ml streptavidin conjugated to horseradish peroxidase (streptavidin-HRP) (Jackson ImmunoResearch Laboratories, West Grove, Pa.) and washed again. Bound streptavidin-HRP was detected using 3 mg/ml o-phenylenediamine (OPD; Sigma) in substrate buffer (SangStat, Menlo Park, Calif.). The reaction was stopped by addition of 1M HCl and absorbance (OD490-OD605) was measured using an ELISA plate reader. Binding of unlabeled peptide was measured in a competition assay. […] Bound biotinylated-2702.75-84 was then detected as described above.

[2] = system: C57BL/6 neonatal heart allograft in CBA/J recipient mice; test: Heterotopic neonatal cardiac transplant into ear pinnae, direct injection into allograft; format: in vivo, mouse
Protocol: We next sought to determine if local delivery of bc peptides via plasmid-mediated gene transfer could extend in vivo transplant survival in a murine heterotopic cardiac transplant model. Specifically, C57BL/6 donor neonatal hearts were transplanted subcutaneously into the ear pinnae of CBA/J recipient mice, bc peptide, or 20 μg of plasmid DNA encoding the bc peptide of interest, was injected directly into the allograft at the time of transplantation. Survival of the allografts was determined by electrocardiogram monitoring and rejection was determined as the cessation of cardiac electrical activity. Graft survival is expressed in days (mean±SEM). Statistical significance was determined by an unpaired Student's t-test.

[3] = molecular target: T2, heme oxygenase (HO, hsp32) (Mus musculus, UniProt P14901); test: Heme oxygenase activity in spleen homogenate (bilirubin formation); format: biochemical; settings: control peptide
T2 construct: Spleen homogenates were used as the source of HO for all activity measurements; from tissue; host or cells: mouse spleen homogenate
T2 sequence (P14901 1-289): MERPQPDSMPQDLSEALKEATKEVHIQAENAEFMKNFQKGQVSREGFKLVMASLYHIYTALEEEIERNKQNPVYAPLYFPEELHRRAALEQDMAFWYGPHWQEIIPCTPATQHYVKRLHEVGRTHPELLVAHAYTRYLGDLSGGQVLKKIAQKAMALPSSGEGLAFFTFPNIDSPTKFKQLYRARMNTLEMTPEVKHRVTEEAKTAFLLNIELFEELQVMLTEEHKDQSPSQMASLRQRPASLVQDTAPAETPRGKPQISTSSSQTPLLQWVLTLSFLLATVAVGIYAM
Protocol: The effect of the bc peptides on hsp32 (heme oxygenase) was evaluated by measuring heme oxygenase (HO) in the presence or absence of bc peptides. Specifically, mouse spleen samples were homogenized on ice in a Tris-Cl lysis buffer (pH 7.4) containing 0.5% Triton X-100 and protease inhibitors. Samples were frozen in small aliquots until use. Spleen homogenates were used as the source of HO for all activity measurements. Biliverdin reductase was purified from rat liver by the method described by Kutty and Maines, J. Biol Chem., 256:3956 (1981). HO activity was measured by mixing 100 μl of spleen homogenate with 0.8 mM NADPH, 0.8 mM glucose-6-phosphate, 1.0 unit G-6-P dehydrogenase, 1 mM MgCl2 and 10 μl of biliverdin reductase at 4° C. The reaction was initiated by the addition of Hemin (20 μl of 2.5 mM). The reaction mixture was incubated at 37° C. in the dark for 30 min. At the end of the incubation period, any insoluble material was centrifuged and supernatants were analyzed for bilirubin concentration by a modified procedure of Hillman and Beyer, Z. Klin. Chem. 5:92 (1981) (Sigma Diagnostics, kit #552). Controls included spleen samples in the absence of the NADPH generating system and all components of the reaction mixture in the absence of the spleen homogenates.

[4] = system: LPS-induced septic shock in mice; test: LPS septic shock model, survival; format: in vivo, mouse; settings: 20 mg/kg peptide in mannitol 16 h before 100 mg/kg LPS
Source text: Administration of LPS to mice provides an accepted animal model for septic shock (see Otterbein et al., Amer. J. Physiol. 272(2):1 (1997), Albrecht et al., Hepatology 26:1553-1559 (1997), Haziot et al., J. Immunol. 154:6529-6532 (1995) and Otterbein et al., Am. J. Respir. Cell Mol. Biol. 13:595-601 (1995)). To provide further evidence of the utility of bc peptides for the treatment of inflammatory responses and inflammatory conditions (such as septic shock), we tested the effect of bc peptides on the survival of mice following administration of LPS thereto. Specifically, mice were treated with 20 mg/kg of control peptide 2705 or bc peptide in mannitol or with mannitol alone. Sixteen hours after administration of the peptide in mannitol or mannitol alone, the mice were injected with 100 mg/kg LPS and survival of the mice was monitored twice daily.

[5] = system: T-cell mediated lysis of EL4 target cells by CBA to B6 effector cells; test: Cytotoxic T-cell activity, 51Cr release assay; format: cell-based, mouse; settings: concentrations up to 100 μg/ml, 4-hour incubation
Protocol: To assay the effect of peptides on cytotoxic T cell activity, CBA to B6 effector cells were prepared following a 6-day culture of 4×10^6 CBA spleen cells with 5×10^6 mitomycin-treated B6 spleen cells in wells of a 24 well plate (Nuncion Delta, Nunc, Denmark) in RPMI-1640 with 10% FBS. Effector cells were then harvested and washed. EL4 (H-2^b), a mouse lymphoma induced in C57BL/6N was used as target cells. Cultured EL4 cells were maintained and sub-cultured once every three days […] Effector (E) and target (T) cells were then added into V-shaped tissue culture plates (Nunc, Denmark) at E:T ratios of 3:1, 10:1, 30:1, 100:1, respectively. Peptides were diluted to the working concentrations with R-10 medium and added at the beginning of the 4-hour incubation period. For the determination of maximal release, 1% Triton X-100 was added to separate wells. Plates were then centrifuged for 2 min. to increase cellular contact before the 4-hour incubation period. After incubation, 75 μl supernatant from each well was collected and the amount of ^51Cr was counted using a TopCount Scintillation Counter. The degree of cell lysis was calculated using the formula below: [formula]

[6] = system: T-cell proliferation (spleen cells isolated from CBA mice stimulated with anti-CD3 monoclonal antibody); test: Antiproliferative activity: anti-CD3 stimulated spleen cells, [3H]-TdR incorporation; format: cell-based, mouse; settings: 3 days
Source text: Adult 6-8 week old male C57BL6/J (B6, […]), Balb/c(H-2^d) and CBA/J (H-2^k) mice were purchased from the Jackson Laboratory, Bar Harbor, Me. They were kept and maintained in the animal facility in the SangStat Medical Corporation according to NIH guidelines and regulations of the Department of Health.
Peptides were synthesized at synt:em (Nimes, France) using an automated peptide synthesizer and Fmoc chemistry. All peptides were synthesized as amides and then converted to acetate salts. Peptides were purified by preparative reverse phase HPLC and shown to be >95% homogenous by analytical reverse phase HPLC. Amino acid content was confirmed by amino acid analysis. Before use, peptides were first dissolved in 1 volume of DMSO (Sigma) followed by addition of 99 volume of culture medium. The final concentration of DMSO in culture was not greater than 0.25%. […]
Spleen cells isolated from CBA mice were then stimulated (2×10^5/well) with anti-CD3 monoclonal antibody (Pharmingen, San Diego) at a final concentration of 0.1 to 1 μg/ml in 96-well, round-bottom microculture plates (Nunc, Denmark). bc peptides at various concentrations were added at the beginning of the culture. […] Cells were then harvested using a Filtermate 196 Harvester (Packard, Downers Grove, Ill.) and the degree of thymidine incorporation was measured using a TopCount Microplate Scintillation Counter (Packard).

[7] = system: TNF-α production by RAW264.7 macrophage cells; test: LPS-stimulated TNF-α production, ELISA of culture supernatants; format: cell-based; settings: 10 μg/ml LPS, 1 to 100 μM peptide, 24 hours
Protocol: In order to determine the effect of bc peptides on the production of inflammatory cytokines, RAW264.7 macrophage cells were stimulated in culture with 10 μg/ml bacterial lipopolysaccharide (LPS) to produce the inflammatory cytokine tumor necrosis factor-α (TNF-α) (see […] et al., J. Immunol. 153:1674 (1994) and Tonetti et al., Biochem. Biophys. Res. Comm. 230:636-640 (1997)), either in the absence or presence (1 to 100 μM) of test peptide. Following incubation for 24 hours, the amount of TNF-α in the culture supernatents was determined by ELISA.

With `CC[C@H](C)[C@H](NC(=O)[C@H](CCCNC(=N)N)NC(=O)[C@H](CC(C)C)NC(=O)[C@H](CC(N)=O)NC(=O)[C@H](CCC(=O)O)NC(=O)[C@@H](N)CCCNC(=N)N)C(=O)N[C@@H](C)C(=O)N[C@@H](CC(C)C)C(=O)N[C@@H](CCCNC(=N)N)C(=O)N[C@@H](Cc1ccc(O)cc1)C(N)=O` [2702.75-84, Arg-Glu-Asn-Leu-Arg-Ile-Ala-Leu-Arg-Tyr] the “effect on transplant survival over the control treatment” value ([1]; 40 mg/kg/day) was “no observable effect”, the heart allograft survival ([1]; 80 mg/kg/day (days 0-9), PBS/DMSO controls 8±1.4 days) was 10.7±2.6 days and the IC50 (recombinant hsc70; competition with 3 μM biotinylated-2702.75-84, 3 hrs room temperature, read-out: Half maximal inhibition (IC50) of binding of biotinylated-2702.75-84 to hsc70) was 7 ± 3 µM. For the same compound, the “Graft survival (mean±SEM)” value ([2]; 1 μg peptide injected directly into the allograft, untreated controls 13.9±0.9) was 13.3 ± 0.75 days and the “Graft survival (mean±SEM)” value ([2]; 400 μg peptide injected directly into the allograft) was 22.0 ± 0.58 days.

With REDLRTLLRY [compound 2705] the “effect on HO activity” value [3] was “inactive”, the “survival of mice after LPS” value [4] was “died on day one” and the “effect on T-cell mediated target cell lysis” value [5] was “no effect”. The “effect on T-cell proliferation” value [6] was “no effect”.

In the case of RVNLPIALRY [D2RP, control peptide], the “inhibition of the production of TNF-α” value [7] is reported as “no ability to inhibit”.

In the case of “biotinylated-2702.75-84: peptide 2702.75-84 with biotin attached to the N-terminus via a six carbon spacer”, the “binding to hsc70 coated ELISA plates” value (recombinant hsc70; direct binding, streptavidin-HRP detection) is reported as “dose dependent binding”.
